Test: Gelling ability of basic amino acid derivatives (test tube tilting, visual appearance)
Assay type: physicochemical
Set-up: key to gel appearance: GT: transparent gel; GTL: translucent gel; GO: opaque gel
Conditions: heated to 100° C., stood at 25° C. for 2 hr
Description: The gelling ability of various basic amino acid derivatives prepared in Production Examples 1-4, 7, 9 and 10 was confirmed. Test tube equipped with a cover was filled with water, saline, phosphate buffered saline (hereinafter indicated as PBS), and aqueous NaCl solution or aqueous KCl solution, and a basic amino acid derivative was added at various concentrations. The mixture was heated to 100° C. to achieve homogeneous dissolution, and stood at 25° C. for 2 hr. After allowing to cool, the test tube was tilted, and the absence of fluidity was judged as gellation, and the appearance was visually observed.
Abbreviations mean the following. • GT: transparent gel • GTL: translucent gel • GO: opaque gel

CCCCCCCCCCCC(=O)NCCCC[C@H](NC(=O)CCCCCCCCC(=O)[O-])C(=O)O.[Na+] [Production Example 9, N^ε-lauroyl-N^α-(9-carboxynonanoyl)-L-lysine monosodium salt]
gel appearance (0.1M aqueous KCl solution): GT | minimum gelling concentration (0.1M aqueous KCl solution): 4 g/L | gel appearance (0.1M aqueous NaCl solution): GT | minimum gelling concentration (0.1M aqueous NaCl solution): 4 g/L | gel appearance (1.0M aqueous KCl solution): GT | minimum gelling concentration (1.0M aqueous KCl solution): 4 g/L | gel appearance (1.0M aqueous NaCl solution): GT | minimum gelling concentration (1.0M aqueous NaCl solution): 4 g/L | gel appearance (PBS): GT | minimum gelling concentration (PBS): 4 g/L | gel appearance (saline): GT | minimum gelling concentration (saline): 4 g/L | gel appearance (water): GTL | minimum gelling concentration (water): 30 g/L

CCCCCCCCCCCC(=O)NCCCC[C@H](NC(=O)CC(CCCCCCCCCC)C(=O)[O-])C(=O)O.[Na+] (stereo partly drawn) [Production Example 3, N^ε-lauroyl-N^α-(3-carboxytridecanoyl)-L-lysine monosodium salt]
gel appearance (0.1M aqueous KCl solution): GTL | minimum gelling concentration (0.1M aqueous KCl solution): 20 g/L | gel appearance (0.1M aqueous NaCl solution): GTL | minimum gelling concentration (0.1M aqueous NaCl solution): 20 g/L | gel appearance (1.0M aqueous KCl solution): GO | minimum gelling concentration (1.0M aqueous KCl solution): 20 g/L | gel appearance (PBS): GO | minimum gelling concentration (PBS): 60 g/L | gel appearance (saline): GTL | minimum gelling concentration (saline): 50 g/L | gel appearance (water): GTL | minimum gelling concentration (water): 50 g/L

CCCCCCCCCCCC(=O)NCCCC[C@H](NC(=O)CC(CCCCCCCCCC)C(=O)[O-])C(=O)O.[K+] (stereo partly drawn) [Production Example 4, N^ε-lauroyl-N^α-(3-carboxytridecanoyl)-L-lysine monopotassium salt]
gel appearance (0.1M aqueous KCl solution): GTL | minimum gelling concentration (0.1M aqueous KCl solution): 40 g/L | gel appearance (0.1M aqueous NaCl solution): GTL | minimum gelling concentration (0.1M aqueous NaCl solution): 20 g/L | gel appearance (1.0M aqueous KCl solution): GO | minimum gelling concentration (1.0M aqueous KCl solution): 20 g/L | gel appearance (PBS): GO | minimum gelling concentration (PBS): 60 g/L | gel appearance (saline): GTL | minimum gelling concentration (saline): 50 g/L | gel appearance (water): GTL | minimum gelling concentration (water): 60 g/L

CCCCCCCCCCCC(=O)NCCCC[C@H](NC(=O)CCCCCCC(=O)[O-])C(=O)O.[Na+] [Production Example 7, N^ε-lauroyl-N^α-(7-carboxyheptanoyl)-L-lysine monosodium salt]
gel appearance (0.1M aqueous KCl solution): GT | minimum gelling concentration (0.1M aqueous KCl solution): 30 g/L | gel appearance (0.1M aqueous NaCl solution): GTL | minimum gelling concentration (0.1M aqueous NaCl solution): 30 g/L | gel appearance (1.0M aqueous KCl solution): GT | minimum gelling concentration (1.0M aqueous KCl solution): 4 g/L | gel appearance (1.0M aqueous NaCl solution): GT | minimum gelling concentration (1.0M aqueous NaCl solution): 4 g/L | gel appearance (PBS): GT | minimum gelling concentration (PBS): 30 g/L | gel appearance (saline): GT | minimum gelling concentration (saline): 30 g/L

CCCCCCCCCCCC(=O)NCCCC[C@H](NC(=O)CCCCCCCCC(=O)[O-])C(=O)O.[K+] [Production Example 10, N^ε-lauroyl-N^α-(9-carboxynonanoyl)-L-lysine monopotassium salt]
gel appearance (0.1M aqueous KCl solution): GT | minimum gelling concentration (0.1M aqueous KCl solution): 4 g/L | gel appearance (0.1M aqueous NaCl solution): GT | minimum gelling concentration (0.1M aqueous NaCl solution): 10 g/L | gel appearance (1.0M aqueous KCl solution): GT | minimum gelling concentration (1.0M aqueous KCl solution): 4 g/L | gel appearance (1.0M aqueous NaCl solution): GT | minimum gelling concentration (1.0M aqueous NaCl solution): 4 g/L | gel appearance (PBS): GT | minimum gelling concentration (PBS): 4 g/L | gel appearance (saline): GT | minimum gelling concentration (saline): 4 g/L | gel appearance (water): GTL | minimum gelling concentration (water): 30 g/L

CCCCCCCCCCCC(=O)NCCCC[C@H](NC(=O)CC(CCCCCCCCCC)C(=O)[O-])C(=O)OCC.[Na+] (stereo partly drawn) [Production Example 1, N^ε-lauroyl-N^α-(3-carboxytridecanoyl)-L-lysine ethyl ester sodium salt]
gel appearance (0.1M aqueous KCl solution): GTL | minimum gelling concentration (0.1M aqueous KCl solution): 15 g/L | gel appearance (0.1M aqueous NaCl solution): GTL | minimum gelling concentration (0.1M aqueous NaCl solution): 10 g/L | gel appearance (saline): GTL | minimum gelling concentration (saline): 20 g/L | gel appearance (water): GTL | minimum gelling concentration (water): 25 g/L

CCCCCCCCCCCC(=O)NCCCC[C@H](NC(=O)CC(CCCCCCCCCC)C(=O)[O-])C(=O)OCC.[K+] (stereo partly drawn) [Production Example 2, N^ε-lauroyl-N^α-(3-carboxytridecanoyl)-L-lysine ethyl ester potassium salt]
gel appearance (0.1M aqueous KCl solution): GTL | minimum gelling concentration (0.1M aqueous KCl solution): 10 g/L | gel appearance (0.1M aqueous NaCl solution): GTL | minimum gelling concentration (0.1M aqueous NaCl solution): 10 g/L | gel appearance (saline): GTL | minimum gelling concentration (saline): 20 g/L | gel appearance (water): GTL | minimum gelling concentration (water): 20 g/L

Source: patent publication US9198846B2, “Basic amino acid derivative” (AJINOMOTO CO., INC., priority 2012, dated 2015)
